Assay results as given in patent US20250326785A1, “SODIUM SALT AND ETHANOLAMINE SALT OF 23-HYDROXYTORMENTIC ACID” (HUYABIO International, LLC, priority 2024, published 2025).
Like-named read-outs stand apart in the source and are kept apart here.

Key:
[1] = for HPLC Conc.: 24 h, starting concentration 100 mg/mL; for HPLC Conc. / HPLC Conc./: based on free acid
Source text: pH-dependent solubility of the HBI- 3808 sodium salt of Pattern 2 was studied.
pH dependent solubility of the HBI- 3808 sodium salt of Pattern 5 was studied.

[2] = Stability study at 25° C./60% RH, 40° C./75% RH and 60° C. (XRPD, HPLC purity, impurity tracking); conditions: for XRPD: * = crystalline salt; for HPLC: based on free acid
Source text: Stability of HBI-3808 Sodium Salt Pattern 2 was studied over 13 weeks.
Table 2F presents impurity tracking results from a 13-week stability study of HBI-3808 sodium salt of Pattern 2. […]

[3] = 25° C./60% RH (open vial), 13 Weeks
[4] = 25° C./60% RH (open vial), 1 Week
[5] = 25° C./60% RH (open vial), 2 Weeks
[6] = 25° C./60% RH (open vial), 4 Weeks
[7] = 25° C./60% RH (open vial), 8 Weeks
[8] = 40° C./75% RH (open vial), 13 Weeks
[9] = 40° C./75% RH (open vial), 1 Week
[10] = 40° C./75% RH (open vial), 2 Weeks
[11] = 40° C./75% RH (open vial), 4 Weeks
[12] = 40° C./75% RH (open vial), 8 Weeks

Compound: C[C@@H]1CC[C@]2(C(=O)O)CC[C@]3(C)C(=CC[C@@H]4[C@@]5(C)C[C@@H](O)[C@H](O)[C@@](C)(CO)[C@@H]5CC[C@]43C)[C@@H]2[C@]1(C)O.NCCO [ethanolamine salt of HBI-3808, ETHANOLAMINE SALT OF 23-HYDROXYTORMENTIC ACID]
- XRPD of recovered solids ([1]; FaSSGF): consistent with ethanolamine salt
- final Measured pH ([1]; FaSSGF): 8.62
- HPLC Conc. ([1]; FaSSGF, final pH 8.62): 57.2 mg/mL
- XRPD pattern of recovered solids ([1]; FaSSGF, *** = crystalline salt): 1***
- HPLC Conc./ ([1]; FaSSGF): 57.2 mg/mL
- concentration ([1]; pH 1.2): < 1000 ng/mL
- XRPD of recovered solids ([1]; target pH 1.2): Amorphous solids
- HPLC Conc. ([1]; target pH 1.2 buffer): <0.001 mg/mL
- XRPD of recovered solids ([1]; target pH 3.0): consistent with HBI-3808 free acid of Pattern 1
- HPLC Conc. ([1]; target pH 3.0 buffer): <0.001 mg/mL
- XRPD pattern of recovered solids ([1]; target pH 3.0 buffer, ** = free acid): 1**
- XRPD of recovered solids ([1]; target pH 4.0): consistent with HBI-3808 free acid of Pattern 1
- HPLC Conc. ([1]; target pH 4.0 buffer): <0.001 mg/mL
- XRPD pattern of recovered solids ([1]; target pH 4.0 buffer, ** = free acid): 1**
- XRPD of recovered solids ([1]; target pH 6.8): Amorphous solids
- HPLC Conc. ([1]; target pH 6.8 buffer): 0.5 mg/mL
- HPLC Conc./ ([1]; target pH 6.8 phosphate buffer): 0.5 mg/mL
- XRPD of recovered solids ([1]; target pH 8.0): Amorphous solids
- HPLC Conc. ([1]; target pH 8.0 buffer): 17.7 mg/mL
- HPLC Conc./ ([1]; target pH 8.0 phosphate buffer): 17.7 mg/mL
- HPLC/ % area [2, 3]: 97.4 % area
- XRPD [2, 4]: 1*
- HPLC [2, 4]: 97.3 % area
- XRPD [2, 5]: 1*
- HPLC [2, 5]: 97.3 % area
- XRPD [2, 6]: 1*
- HPLC [2, 6]: 97.5 % area
- XRPD [2, 7]: 1*
- HPLC [2, 7]: 97.0 % area
- XRPD [2, 3]: 1*
- HPLC [2, 3]: 97.3 % area
- RRT 0.801 impurity ([2]; 25° C./60% RH, 1 week): 0.10 % area
- RRT 0.970 impurity ([2]; 25° C./60% RH, 1 week): 0.10 % area
- RRT 1.000 (HBI-3808) ([2]; 25° C./60% RH, 1 week): 97.31 % area
- RRT 1.025 (Isomer of HBI-3808) ([2]; 25° C./60% RH, 1 week): 2.48 % area
- Total Impurities ([2]; 25° C./60% RH, 1 week): 2.69 % area
- RRT 0.970 impurity ([2]; 25° C./60% RH, 2 weeks): 0.12 % area
- RRT 1.000 (HBI-3808) ([2]; 25° C./60% RH, 2 weeks): 97.29 % area
- RRT 1.025 (Isomer of HBI-3808) ([2]; 25° C./60% RH, 2 weeks): 2.39 % area
- RRT 1.935 impurity ([2]; 25° C./60% RH, 2 weeks): 0.20 % area
- Total Impurities ([2]; 25° C./60% RH, 2 weeks): 2.71 % area
- RRT 0.970 impurity ([2]; 25° C./60% RH, 4 weeks): 0.11 % area
- RRT 1.000 (HBI-3808) ([2]; 25° C./60% RH, 4 weeks): 97.47 % area
- RRT 1.025 (Isomer of HBI-3808) ([2]; 25° C./60% RH, 4 weeks): 2.41 % area
- Total Impurities ([2]; 25° C./60% RH, 4 weeks): 2.53 % area
- RRT 0.970 impurity ([2]; 25° C./60% RH, 8 weeks): 0.10 % area
- RRT 1.000 (HBI-3808) ([2]; 25° C./60% RH, 8 weeks): 96.99 % area
- RRT 1.025 (Isomer of HBI-3808) ([2]; 25° C./60% RH, 8 weeks): 2.51 % area
- RRT 1.767 impurity ([2]; 25° C./60% RH, 8 weeks): 0.29 % area
- Total Impurities ([2]; 25° C./60% RH, 8 weeks): 3.01 % area
- RRT 0.801 impurity ([2]; 25° C./60% RH, 13 weeks): 0.12 % area
- RRT 1.000 (HBI-3808) ([2]; 25° C./60% RH, 13 weeks): 97.33 % area
- RRT 1.025 (Isomer of HBI-3808) ([2]; 25° C./60% RH, 13 weeks): 2.37 % area
- RRT 1.935 impurity ([2]; 25° C./60% RH, 13 weeks): 0.19 % area
- Total Impurities ([2]; 25° C./60% RH, 13 weeks): 2.67 % area
- RRT 1.000 (HBI-3808) ([2]; 25° C./60% RH, T = 0): 97.82 % area
- RRT 1.025 (Isomer of HBI-3808) ([2]; 25° C./60% RH, T = 0): 2.18 % area
- Total Impurities ([2]; 25° C./60% RH, T = 0): 2.18 % area
- HPLC/ % area [2, 8]: 97.4 % area
- XRPD [2, 9]: 1*
- HPLC [2, 9]: 97.3 % area
- XRPD [2, 10]: 1*
- HPLC [2, 10]: 97.3 % area
- XRPD [2, 11]: 1*
- HPLC [2, 11]: 97.5 % area
- XRPD [2, 12]: 1*
- HPLC [2, 12]: 96.9 % area
- XRPD [2, 8]: 1*
- HPLC [2, 8]: 97.4 % area
